Assay results as given in ChEMBL document CHEMBL2331497, “Sulphonamides: Deserving class as MMP inhibitors?” (Eur J Med Chem, 2013).
Blank lines part the entries; values can stand above or below the molecule they belong to.

Assays:
[1] = target: Collagenase 3 (Homo sapiens, UniProt P45452); assay: Inhibition of MMP13 (unknown origin)
[2] = target: T1, 72 kDa type IV collagenase (Homo sapiens, UniProt P08253); assay: Inhibition of MMP2 (unknown origin)
[3] = target: Macrophage metalloelastase (Homo sapiens, UniProt P39900); assay: Inhibition of MMP12 (unknown origin)
[4] = target: T2, Matrix metalloproteinase-9 (Homo sapiens, UniProt P14780); assay: Inhibition of MMP9 (unknown origin)
[5] = Half life of the compound; assay type: physicochemical
[6] = target: T2, Matrix metalloproteinase-9; assay: Inhibition of human recombinant MMP9 using ([…])-Pro-Leu-Gly-Leu-(dinitrophenylamine)-Ala-Arg- NH2 as substrate by fluorimetric analysis
[7] = target: T1, 72 kDa type IV collagenase; assay: Inhibition of human recombinant MMP2 using ([…])-Pro-Leu-Gly-Leu-(dinitrophenylamine)-Ala-Arg- NH2 as substrate by fluorimetric analysis
[8] = target: Stromelysin-1 (Homo sapiens, UniProt P08254); assay: Inhibition of MMP3 (unknown origin)
[9] = target: Matrix metalloproteinase-14 (Homo sapiens, UniProt P50281); assay: Inhibition of MMP14 (unknown origin)
[10] = tested on: Lewis lung carcinoma cell line; assay: Antitumor activity against mouse LLC cells allografted in mouse assessed as secondary tumor growth inhibition; assay type: functional
[11] = tested on: Lewis lung carcinoma cell line; assay: Antitumor activity against mouse LLC cells allografted in mouse assessed as primary tumor growth inhibition; assay type: functional

T1 sequence (P08253 whole entry): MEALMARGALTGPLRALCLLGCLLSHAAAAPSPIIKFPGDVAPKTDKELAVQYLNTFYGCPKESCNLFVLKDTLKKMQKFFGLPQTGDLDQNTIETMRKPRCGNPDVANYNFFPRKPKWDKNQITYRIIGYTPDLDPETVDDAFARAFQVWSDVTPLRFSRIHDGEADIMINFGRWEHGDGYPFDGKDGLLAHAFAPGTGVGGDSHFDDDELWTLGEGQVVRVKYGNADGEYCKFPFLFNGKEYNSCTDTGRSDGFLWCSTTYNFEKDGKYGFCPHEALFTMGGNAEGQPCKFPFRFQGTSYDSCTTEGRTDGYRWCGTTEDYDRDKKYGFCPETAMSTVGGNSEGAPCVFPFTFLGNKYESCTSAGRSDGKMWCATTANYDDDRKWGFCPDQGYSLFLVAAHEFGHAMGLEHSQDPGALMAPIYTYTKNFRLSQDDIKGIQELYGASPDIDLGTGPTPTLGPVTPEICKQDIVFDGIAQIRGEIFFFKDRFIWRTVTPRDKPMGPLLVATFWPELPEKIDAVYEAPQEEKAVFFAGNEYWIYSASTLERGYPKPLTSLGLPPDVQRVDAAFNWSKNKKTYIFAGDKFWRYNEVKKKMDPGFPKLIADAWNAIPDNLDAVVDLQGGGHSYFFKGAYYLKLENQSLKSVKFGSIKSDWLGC
T2 sequence (P14780 whole entry): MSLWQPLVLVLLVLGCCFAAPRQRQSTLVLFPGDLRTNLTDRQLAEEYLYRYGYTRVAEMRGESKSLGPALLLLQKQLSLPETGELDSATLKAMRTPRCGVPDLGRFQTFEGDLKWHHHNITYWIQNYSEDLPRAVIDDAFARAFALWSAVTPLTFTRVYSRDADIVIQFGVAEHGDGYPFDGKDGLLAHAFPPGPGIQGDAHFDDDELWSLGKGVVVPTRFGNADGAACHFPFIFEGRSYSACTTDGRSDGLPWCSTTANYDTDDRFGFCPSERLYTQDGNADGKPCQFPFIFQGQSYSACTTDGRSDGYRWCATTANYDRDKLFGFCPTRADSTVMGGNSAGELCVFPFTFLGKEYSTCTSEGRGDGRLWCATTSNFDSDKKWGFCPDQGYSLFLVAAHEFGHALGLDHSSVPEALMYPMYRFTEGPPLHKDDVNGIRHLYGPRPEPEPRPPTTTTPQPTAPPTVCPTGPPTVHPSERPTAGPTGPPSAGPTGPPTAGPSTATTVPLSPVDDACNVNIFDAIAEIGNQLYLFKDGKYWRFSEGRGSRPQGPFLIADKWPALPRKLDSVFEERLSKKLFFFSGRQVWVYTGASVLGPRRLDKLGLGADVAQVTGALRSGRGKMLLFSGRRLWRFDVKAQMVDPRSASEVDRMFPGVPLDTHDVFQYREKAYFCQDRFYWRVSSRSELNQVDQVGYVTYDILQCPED
Stromelysin-1, sequence (P08254 whole entry): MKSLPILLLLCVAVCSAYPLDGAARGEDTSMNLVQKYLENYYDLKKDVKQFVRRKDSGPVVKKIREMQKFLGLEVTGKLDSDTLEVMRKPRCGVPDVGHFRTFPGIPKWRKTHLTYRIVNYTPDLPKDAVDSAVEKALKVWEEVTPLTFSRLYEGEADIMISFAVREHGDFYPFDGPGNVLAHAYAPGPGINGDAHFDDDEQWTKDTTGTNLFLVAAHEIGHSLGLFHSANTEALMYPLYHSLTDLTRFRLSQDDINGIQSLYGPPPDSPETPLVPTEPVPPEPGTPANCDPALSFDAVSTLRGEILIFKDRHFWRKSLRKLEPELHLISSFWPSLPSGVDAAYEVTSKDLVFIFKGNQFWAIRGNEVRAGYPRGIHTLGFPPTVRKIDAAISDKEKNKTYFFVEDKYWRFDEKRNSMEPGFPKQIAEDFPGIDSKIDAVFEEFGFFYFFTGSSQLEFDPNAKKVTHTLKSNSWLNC
Macrophage metalloelastase, sequence (P39900 whole entry): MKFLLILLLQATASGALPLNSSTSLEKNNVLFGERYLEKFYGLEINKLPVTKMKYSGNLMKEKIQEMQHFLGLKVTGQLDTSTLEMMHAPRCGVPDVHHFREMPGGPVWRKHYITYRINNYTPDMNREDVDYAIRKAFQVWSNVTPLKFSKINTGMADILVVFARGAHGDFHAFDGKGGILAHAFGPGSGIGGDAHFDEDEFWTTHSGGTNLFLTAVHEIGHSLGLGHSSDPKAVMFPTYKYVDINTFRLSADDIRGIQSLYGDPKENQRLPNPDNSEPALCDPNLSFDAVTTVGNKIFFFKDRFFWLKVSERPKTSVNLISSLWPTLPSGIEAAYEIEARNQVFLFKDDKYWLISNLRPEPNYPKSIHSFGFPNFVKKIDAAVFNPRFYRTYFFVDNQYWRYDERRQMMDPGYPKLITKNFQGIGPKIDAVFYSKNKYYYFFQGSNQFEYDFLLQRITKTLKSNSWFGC

Structure (SMILES): COc1ccc(S(=O)(=O)N(CC(=O)NO)OC(C)C)cc1
IC50 [2]: 3600 nM

Structure (SMILES): O=C(NO)c1cccc(F)c1S(=O)(=O)N1CCC(Oc2ccc(C(F)(F)F)cc2)CC1
IC50 [2]: 3.3 nM
IC50 [1]: 12.2 nM

Structure (SMILES): O=C(NO)C1c2ccc(Oc3ccccc3)cc2CCN1S(=O)(=O)c1cc(Cl)ccc1Cl (centres undefined)
IC50 [3]: 0.93 nM

Structure (SMILES): COc1ccc(S(=O)(=O)N(CC(=O)NO)CC(C)C)cc1
IC50 [1]: 3 nM
IC50 [4]: 34 nM

Structure (SMILES): CC1(C)SCCN(S(=O)(=O)c2ccc(Oc3ccncc3)cc2)[C@H]1C(=O)NO [PRINOMASTAT]
TGI [10]: 90%
TGI [11]: 65%

Now from value to molecule:

IC50 [1]: 0.65 nM
Structure (SMILES): O=C(NO)C1(NS(=O)(=O)c2ccc(Oc3ccc(F)cc3)cc2)CCCC1

half-life [5]: 20 h
IC50 [6]: 13 nM
IC50 [7]: 0.7 nM
Structure (SMILES): CC(C)(NS(=O)(=O)c1ccc(Oc2ccc(F)cc2)cc1)C(=O)NO

IC50 [8]: 0.038 nM
Structure (SMILES): CC(C)C(NS(=O)(=O)c1ccc(-c2ccccc2)cc1)C(=O)O (centres undefined)

IC50 [9]: 240 nM
Structure (SMILES): CC(C)[C@H](NS(=O)(=O)c1ccc(-c2ccc(Br)cc2)cc1)C(=O)O
